Results on 8 compounds are retold here after patent US11034650B2, “Compounds useful for treating a Mannheimia haemolytica or Histophilus somni infection” (Intervet Inc., priority 2016, dated 2021).

What all share (assay type): cell-based
Assay [1] has as its system Mannheimia haemolytica MH 6374 (ATCC 33396, reference strain). Briefly: MIC, broth-microdilution (CLSI VET01-A4), strain MH 6374. To be noted: Mannheimia haemolytica strain MH 6374, broth-microdilution; unit assumed. The method, boiled down: (§1)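 Test articles are arrayed as a twofold dilution range in microdilution trays. Wells are scored by naked eye, and the MIC is taken where turbidity first disappears.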

In assay [2] the test system is Pasteurella multocida PM 6391 (ATCC 43137, reference strain). Description: MIC, broth-microdilution (CLSI VET01-A4), strain PM 6391. To be noted: Pasteurella multocida strain PM 6391, broth-microdilution; unit assumed. The method, boiled down: as §1
A general note: Dilution methods test growth across graded concentrations, often in twofold steps.

For assay [3], the system named is Pasteurella multocida PM 10775 (080130003051, BRD field isolate). Briefly: MIC, broth-microdilution (CLSI VET01-A4), strain PM 10775. As to conditions: Pasteurella multocida strain PM 10775, broth-microdilution; unit assumed. In short, it runs like this: as §1
The test system of assay [4] is Mannheimia haemolytica MH 12587 (1071, BRD field isolate, macrolide-resistance: erm+, E+). Description: MIC, broth-microdilution (CLSI VET01-A4), strain MH 12587. To be noted: Mannheimia haemolytica strain MH 12587, broth-microdilution; unit assumed. In short, it runs like this: as §1
The subject of assay [5] is Mannheimia haemolytica MH 10720 (154, BRD field isolate). Briefly: MIC, broth-microdilution (CLSI VET01-A4), strain MH 10720. To be noted: Mannheimia haemolytica strain MH 10720, broth-microdilution; unit assumed. The method, boiled down: as §1
Assay [6] deals with Mannheimia haemolytica MH 13093 (XB0472-6014.1, BRD field isolate). Briefly: MIC, broth-microdilution (CLSI VET01-A4), strain MH 13093. To be noted: Mannheimia haemolytica strain MH 13093, broth-microdilution; unit assumed. The method, boiled down: as §1
The subject of assay [7] is Mannheimia haemolytica MH 13065 (XB0446-6003.9, BRD field isolate). Description: MIC, broth-microdilution (CLSI VET01-A4), strain MH 13065. To be noted: Mannheimia haemolytica strain MH 13065, broth-microdilution; unit assumed. The method, boiled down: as §1
The subject of assay [8] is Mannheimia haemolytica MH 6357 (M7/2, reference strain, cattle infection strain). Description: MIC, broth-microdilution (CLSI VET01-A4), strain MH 6357. As to conditions: Mannheimia haemolytica strain MH 6357, broth-microdilution; unit assumed. The method, boiled down: as §1
For assay [9], the system named is Pasteurella multocida PM 12080 (IV102277-0093, BRD field isolate). Description: MIC, broth-microdilution (CLSI VET01-A4), strain PM 12080. As to conditions: Pasteurella multocida strain PM 12080, broth-microdilution; unit assumed. The method, boiled down:
as §1

Assay [10] deals with Pasteurella multocida PM 6267 (P 2225 (L386), reference strain, mouse infection strain). Description: MIC, broth-microdilution (CLSI VET01-A4), strain PM 6267. As to conditions: Pasteurella multocida strain PM 6267, broth-microdilution; unit assumed. In short, it runs like this: as §1

Values after ≈ are worked out from the molar mass of the structure shown.

`O=C(N[C@@H](CO)C(=O)NO)c1ccc(C#Cc2ccc(CN3CCCOCC3)cc2)cc1` [Compound 215] showed an MIC MH 6374 in assay [1] of 3.1 µg/mL (≈ 7.09 µM). The MIC PM 6391 in [2] is at most 0.1 µg/mL. In addition, the MIC PM 10775 in assay [3] is at most 0.1 µg/mL. Further, the MIC MH 12587 in [4] was found to be 6.3 µg/mL (≈ 14.4 µM). Further, in assay [5], the MIC MH 10720 turned out to be 0.8 µg/mL (≈ 1.83 µM). The same compound returned an MIC MH 13093 in [6] of 6.3 µg/mL (≈ 14.4 µM). This compound returned an MIC MH 13065 in assay [7] of 3.1 µg/mL (≈ 7.09 µM). The MIC MH 6357 in assay [8] came to 3.1 µg/mL (≈ 7.09 µM). Further, the MIC PM 12080 in [9] was at most 0.1 µg/mL. Besides, the MIC PM 6267 in assay [10] is at most 0.1 µg/mL.
In the case of `N#CCNCc1ccc(C#Cc2ccc(C(=O)N[C@@H](CO)C(=O)NO)cc2)cc1` [Compound 216], the MIC MH 6374 in assay [1] was determined as 3.1 µg/mL (≈ 7.9 µM). The compound also yielded an MIC PM 6391 in assay [2] of 0.2 µg/mL (≈ 0.51 µM). Moreover, the MIC PM 10775 in [3] was at most 0.1 µg/mL. This compound also registered an MIC MH 12587 in [4] of 3.1 µg/mL (≈ 7.9 µM). This compound registered an MIC MH 10720 in [5] of 0.8 µg/mL (≈ 2.04 µM). In addition, in [6], the MIC MH 13093 worked out at 3.1 µg/mL (≈ 7.9 µM). In [7], the MIC MH 13065 came to 1.6 µg/mL (≈ 4.08 µM). In assay [8], this compound registered an MIC MH 6357 of 1.6 µg/mL (≈ 4.08 µM). In [9], this compound yielded an MIC PM 12080 of 0.2 µg/mL (≈ 0.51 µM). This compound had an MIC PM 6267 in assay [10] of at most 0.1 µg/mL.
The compound `CC(C)(O)[C@H](NC(=O)c1ccc(C#Cc2ccc(CNC3CC3)cc2)cc1)C(=O)NO` [Compound 219] had an MIC MH 6374 in assay [1] of 0.4 µg/mL (≈ 0.949 µM). In assay [2], this compound displayed an MIC PM 6391 of at most 0.1 µg/mL. The same compound had an MIC PM 10775 in assay [3] of at most 0.1 µg/mL. Further, the MIC MH 12587 in assay [4] came out at 1.6 µg/mL (≈ 3.8 µM). The same compound displayed an MIC MH 10720 in assay [5] of at most 0.1 µg/mL. This compound displayed an MIC MH 13093 in assay [6] of 0.8 µg/mL (≈ 1.9 µM). The same compound displayed an MIC MH 13065 in [7] of 0.4 µg/mL (≈ 0.949 µM). In assay [8], this compound returned an MIC MH 6357 of 1.6 µg/mL (≈ 3.8 µM). This compound also gave an MIC PM 12080 in assay [9] of at most 0.1 µg/mL. In assay [10], this compound returned an MIC PM 6267 of at most 0.1 µg/mL.
For `C=CCNCc1ccc(C#Cc2ccc(C(=O)N[C@H](C(=O)NO)C(C)(C)O)cc2)cc1` [Compound 220], in [1], the MIC MH 6374 was found to be 0.8 µg/mL (≈ 1.9 µM). The compound further yielded an MIC PM 6391 in assay [2] of 0.4 µg/mL (≈ 0.949 µM). This compound yielded an MIC PM 10775 in assay [3] of at most 0.1 µg/mL. Besides, in assay [4], the MIC MH 12587 turned out to be 3.1 µg/mL (≈ 7.35 µM). The compound also gave an MIC MH 10720 in assay [5] of at most 0.1 µg/mL. The MIC MH 13093 in assay [6] came to 1.6 µg/mL (≈ 3.8 µM). This compound had an MIC MH 13065 in assay [7] of 0.8 µg/mL (≈ 1.9 µM). The compound further returned an MIC MH 6357 in assay [8] of 3.1 µg/mL (≈ 7.35 µM). This compound also came in with an MIC PM 12080 in assay [9] of 0.4 µg/mL (≈ 0.949 µM). This compound also showed an MIC PM 6267 in assay [10] of at most 0.1 µg/mL.
The compound `COCCNCc1ccc(C#Cc2ccc(C(=O)N[C@H](C(=O)NO)C(C)(C)O)cc2)cc1` [Compound 221] registered an MIC MH 6374 in [1] of 0.8 µg/mL (≈ 1.82 µM). In addition, the MIC PM 6391 in assay [2] stood at 0.4 µg/mL (≈ 0.91 µM). Besides, in [3], the MIC PM 10775 was at most 0.1 µg/mL. The compound further gave an MIC MH 12587 in assay [4] of 3.1 µg/mL (≈ 7.05 µM). In addition, the MIC MH 10720 in assay [5] was at most 0.1 µg/mL. The compound also registered an MIC MH 13093 in [6] of 1.6 µg/mL (≈ 3.64 µM). The MIC MH 13065 in assay [7] was 1.6 µg/mL (≈ 3.64 µM). Besides, the MIC MH 6357 in assay [8] was 0.8 µg/mL (≈ 1.82 µM). The same compound yielded an MIC PM 12080 in [9] of 0.4 µg/mL (≈ 0.91 µM). In assay [10], this compound registered an MIC PM 6267 of at most 0.1 µg/mL.
Compound `CC(C)(O)[C@H](NC(=O)c1ccc(C#Cc2ccc(CN3CCOCC3)cc2)cc1)C(=O)NO` [Compound 222] had an MIC MH 6374 in assay [1] of 1.6 µg/mL (≈ 3.54 µM). The same compound registered an MIC PM 6391 in assay [2] of at most 0.1 µg/mL. Besides, in assay [3], the MIC PM 10775 is at most 0.1 µg/mL. Further, the MIC MH 12587 in assay [4] was determined as 1.6 µg/mL (≈ 3.54 µM). Moreover, the MIC MH 10720 in assay [5] was found to be 0.2 µg/mL (≈ 0.443 µM). Also, the MIC MH 13093 in [6] is 1.6 µg/mL (≈ 3.54 µM). Further, the MIC MH 13065 in [7] came to 1.6 µg/mL (≈ 3.54 µM). The same compound showed an MIC MH 6357 in assay [8] of 0.8 µg/mL (≈ 1.77 µM). In [9], the MIC PM 12080 turned out to be 0.2 µg/mL (≈ 0.443 µM). Also, in [10], the MIC PM 6267 was at most 0.1 µg/mL.
For `CC(C)(O)[C@H](NC(=O)c1ccc(C#Cc2ccc(CNCc3ccccc3)cc2)cc1)C(=O)NO` [Compound 223], in [1], the MIC MH 6374 was 0.4 µg/mL (≈ 0.848 µM). For the same compound, the MIC PM 6391 in assay [2] is at most 0.1 µg/mL. In [3], this compound had an MIC PM 10775 of at most 0.1 µg/mL. The same compound showed an MIC MH 12587 in assay [4] of 0.8 µg/mL (≈ 1.7 µM). In addition, the MIC MH 10720 in [5] is at most 0.1 µg/mL. For the same compound, the MIC MH 13093 in [6] stood at 0.4 µg/mL (≈ 0.848 µM). This compound also yielded an MIC MH 13065 in assay [7] of 0.4 µg/mL (≈ 0.848 µM). For the same compound, in assay [8], the MIC MH 6357 is 0.8 µg/mL (≈ 1.7 µM). Moreover, the MIC PM 12080 in assay [9] was at most 0.1 µg/mL. In assay [10], this compound had an MIC PM 6267 of at most 0.1 µg/mL.
Consider `COc1ccc(CNCc2ccc(C#Cc3ccc(C(=O)N[C@H](C(=O)NO)C(C)(C)O)cc3)cc2)cc1` [Compound 224], for which the MIC MH 6374 in assay [1] was determined as 0.8 µg/mL (≈ 1.59 µM). In [2], this compound displayed an MIC PM 6391 of 0.4 µg/mL (≈ 0.797 µM). The MIC PM 10775 in assay [3] is at most 0.1 µg/mL. For the same compound, in assay [4], the MIC MH 12587 is 1.6 µg/mL (≈ 3.19 µM). For the same compound, the MIC MH 10720 in assay [5] is at most 0.1 µg/mL. Moreover, the MIC MH 13093 in assay [6] was found to be 0.8 µg/mL (≈ 1.59 µM). Also, the MIC MH 13065 in assay [7] was determined as 0.8 µg/mL (≈ 1.59 µM). The MIC MH 6357 in assay [8] came out at 0.8 µg/mL (≈ 1.59 µM). In addition, the MIC PM 12080 in [9] is at most 0.1 µg/mL. In addition, the MIC PM 6267 in assay [10] is at most 0.1 µg/mL.
